Earlier results as cited in patent publication US10213411B2, “Use of prodrugs of fumarates in treating heart failure diseases” (priority 2015, dated 2019).
Structures can show the parent of a compound that is named as a salt.

Key:
[1] = healthy subjects, compared by MMF plasma levels
[2] = tested on: central nervous system (CNS) inflammation; details: preclinical
[3] = tested on: central nervous system (CNS) inflammation; details: preclinical; remark: listed apart in the source
[4] = tested on: astrogliosis and microglial activations

Q: Which “dose comparable to 240 mg DMF (Tecfidera) by plasma levels of MMF” value [1] does the source give for COC(=O)/C=C/C(=O)OCCN1C(=O)CCC1=O [ALKS 8700] here?
A: 420 mg

Q: With COC(=O)/C=C/C(=O)OC [DMF, Dimethyl fumarate] as the compound, how does the “CNS inflammation in murine EAE” value [2] read?
A: inhibit central nervous system (CNS) inflammation

Q: And the “CNS inflammation in rat EAE” value [3]?
A: inhibit central nervous system (CNS) inflammation

Q: And the “astrogliosis and microglial activations associated with EAE” value [4]?
A: inhibit astrogliosis and microglial activations
